# Experimental data taken from patent US7375074B2, “Body weight gain inhibitor” (priority 2001, dated 2008).
# No end group written: not given here. *: point of attachment. 125I = [125I]*
# How the values were obtained:
# TGR26 = target: T1, TGR26 (Rattus norvegicus, UniProt Q56UD9); test: Receptor binding using [125I-Tyr10]-hGPR8L(1-23) and membrane fraction of TGR26 expressing CHO cells; conditions: membrane fraction of TGR26 expressing CHO cells, 3 μg/ml
# T1 construct: treated with restriction enzymes ClaI and SpeI, and the insert encoding TGR26 was excised; expressed in transfected cells; host or cells: CHO dhfr- cells, plasmid pAK-rGPR7; membrane fraction
# T1 sequence (Q56UD9 1-329): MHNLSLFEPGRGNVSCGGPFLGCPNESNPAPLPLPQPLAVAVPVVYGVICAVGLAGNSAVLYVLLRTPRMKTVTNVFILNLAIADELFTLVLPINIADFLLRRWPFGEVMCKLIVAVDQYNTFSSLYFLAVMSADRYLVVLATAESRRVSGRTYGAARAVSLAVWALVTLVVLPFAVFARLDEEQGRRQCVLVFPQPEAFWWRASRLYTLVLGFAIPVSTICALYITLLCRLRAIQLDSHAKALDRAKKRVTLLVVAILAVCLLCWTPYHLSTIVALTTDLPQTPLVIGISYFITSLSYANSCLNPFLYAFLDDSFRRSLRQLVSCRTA
# Protocol: Using [^125I-Tyr^10]-hGPR8L(1-23) prepared by the method described in Reference Example 42 and a cell membrane fraction prepared from TGR26 expressing cells as described in Example 6, a receptor binding assay was carried out as follows.
# Cell membrane fraction prepared from TGR26 expressing cells was diluted to various concentration with assay buffer (25 mM Tris-HCl, 5 mM EDTA, 0.05% CHAPS (3-[(3-Cholamidopropyl) Dimethyl-Ammonio]-1-Propanesulfonate), 0.1% BSA, 0.5 mM PMSF, 1 μg/ml Pepstatin, 20 μg/ml Leupeptin, 4 μg/ml E-64, pH7.4), and 200 μl each of the diluent was dispensed into polypropilene test tube (Falcon 2053). In order to determine an amount of maximum binding, 2 μl of DMSO and 2 μl of 7 nM [^125I-Tyr^10]-hGPR8L(1-23) were added to the membrane fraction solution. […] After filtration, a radioactivity remaining on the filter was counted using γ-counter, and an amount of specific binding was estimated by subtracting an amount of non-specific binding from an amount of maximum binding. […]
# A receptor binding activity of human- and porcine-homologue derivatives of GPR8 ligand peptide obtained in the reference examples was measured using a membrane fraction of TGR26 expressing CHO cells and [^125I-Tyr^10]-hGPR8L(1-23) by the method described in Reference Example 73. […]
# human GPR8 = target: T2, human GPR8 (Homo sapiens, UniProt P48146); test: Receptor binding using [125I-Tyr10]-hGPR8L(1-23) and membrane fraction of GPR8 expressing CHO cells; conditions: membrane fraction of human GPR8 expressing cells
# T2 construct: expressed in transfected cells; host or cells: CHO dhfr- cells, plasmid pAKKO-GPR8; membrane fraction
# T2 sequence (P48146 whole entry): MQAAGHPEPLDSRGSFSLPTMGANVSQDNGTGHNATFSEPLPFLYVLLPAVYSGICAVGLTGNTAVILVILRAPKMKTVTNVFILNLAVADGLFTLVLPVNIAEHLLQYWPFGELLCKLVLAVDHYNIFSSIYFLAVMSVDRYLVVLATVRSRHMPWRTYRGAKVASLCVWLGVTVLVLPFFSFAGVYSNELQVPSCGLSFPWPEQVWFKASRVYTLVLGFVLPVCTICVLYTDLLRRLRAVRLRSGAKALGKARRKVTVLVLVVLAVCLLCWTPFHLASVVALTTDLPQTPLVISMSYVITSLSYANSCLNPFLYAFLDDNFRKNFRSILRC
Molecule,IC50 (TGR26) [nM],specific binding compared with [125I-Tyr2]-hGPR8L(1-23) (human GPR8)
CSCC[C@H](NC(=O)[C@H](CC(C)C)NC(=O)[C@H](CC(C)C)NC(=O)CNC(=O)[C@H](C)NC(=O)[C@H](C)NC(=O)[C@H](CCCNC(=N)N)NC(=O)CNC(=O)[C@@H](NC(=O)[C@@H](NC(=O)[C@H](Cc1c[nH]cn1)NC(=O)[C@H](Cc1ccc(O)cc1)NC(=O)[C@H](CCCNC(=N)N)NC(=O)[C@@H]1CCCN1C(=O)[C@H](CO)NC(=O)[C@H](C)NC(=O)[C@@H](NC(=O)[C@H](Cc1c[nH]cn1)NC(=O)[C@H](CCCCN)NC(=O)[C@H](Cc1ccc(O)cc1)NC(=O)[C@@H](N)Cc1c[nH]c2ccccc12)[C@@H](C)O)[C@@H](C)O)C(C)C)C(=O)NCC(=O)N[C@@H](CC(C)C)C(=O)O [pGPR8L(1-23)],0.12,
[^125I-Tyr^10]-hGPR8L(1-23): hGPR8L(1-23) iodinated with 125I at Tyr10 by the lactoperoxidase method; radioligand (WYKHVASPRY(125I)HTVGRAAGLLMGL),,twice as much
